According to patent US11959909B2, “Basal ganglia-on-chip for screening therapeutic agents for brain and nervous system diseases” (priority 2018, dated 2024):
Entries after “also recorded” stand apart in the source; their conditions may differ.

System: dopaminergic neurons
Experiment: Drug screening on Parkinson's disease-like basal ganglia-on-a-chip model (6-OHDA induced)
Format: cell-based
Settings: 50 μM L-dopa after Parkinson's disease-like model established with 100 μM 6-OHDA
Source text: In order to fabricate a basal ganglia-on-a-chip, SH-SY5Y (ATCC CRL-2266) was used as dopaminergic neurons, and F3-NG1 (provided from professor Hong-Joon Lee at Chung-Ang University) were allowed to differentiate and then used as GABAergic neurons and glutamatergic neurons. Parkinson's disease is caused by the gradual loss of dopaminergic neurons distributed in the substantia nigra. 6-Hydroxydopamine (6-OHDA) causes oxidative stress to induce mitochondrial migration of c-Jun N-terminal kinase (JNK), and the activated JNK after mitochondrial migration causes mitochondrial dysfunction, contributing to apoptosis of dopaminergic neurons, occurring in Parkinson's disease. Based on this, a Parkinson's disease model was developed using 100 μM 6-OHDA.

N[C@@H](Cc1ccc(O)c(O)c1)C(=O)O [L-dopa, L-3,4-dihydroxyphenylalanine]
proliferation of dopaminergic neurons: increase in the proliferation of dopaminergic neurons; also recorded: proliferation of dopaminergic neurons was confirmed
